Here are results for 12 compounds from ChEMBL document CHEMBL1156063, “Design of new antifungal agents: synthesis and evaluation of 1-[(1H-indol-5-ylmethyl)amino]-2-phenyl-3-(1H-1,2,4-triazol-1-yl)propan-2-ols” (2009).

≈ marks a conversion by molar mass, not a printed value. Calls of active or inactive are those of the source.

Common to all, as to assay type: functional
Test [1] concerns Aspergillus fumigatus. The test is described as follows: Antifungal activity against Aspergillus fumigatus AF98003.
Test [2] deals with Candida albicans. The test is described as follows: Antifungal activity against Candida albicans CA98001.
Test [3] relates to Pichia kudriavzevii. The test is described as follows: Antifungal activity against fluconazole low-sensitive Candida krusei CK8.
The subject of test [4] is Candida parapsilosis. The test is described as follows: Antifungal activity against fluconazole-resistant Candida parapsilosis Houdeau. To be noted: Lodderomyces parapsilosis.
The test system of test [5] is Pichia kudriavzevii. Description: Antifungal activity against fluconazole-resistant Candida krusei CK506.
In test [6] the test system is Nakaseomyces glabratus. The test is described as follows: Antifungal activity against fluconazole-resistant Candida glabrata CG468.
In test [7] the test system is Candida parapsilosis. The test is described as follows: Antifungal activity against fluconazole-resistant Candida parapsilosis Rolland. To be noted: Lodderomyces parapsilosis.
The test system of test [8] is Candida albicans. The test is described as follows: Antifungal activity against fluconazole-resistant Candida albicans CA424.
The subject of test [9] is Candida albicans. Description: Antifungal activity against fluconazole-resistant Candida albicans CA284.

Usually MIC stands for the smallest concentration in the dilution series that meets the test's criterion for growth inhibition. Take `CN(Cc1ccc2c(ccn2C(=O)OC(C)(C)C)c1)CC(O)(Cn1cncn1)c1ccc(F)cc1F` (stereo unspecified): the MIC result in test [1] is “inactive”. Besides, in test [2], it took 0.06 µg/mL (≈ 0.121 µM) to inhibit growth (MIC).

Consider `O=C(c1ccccc1)n1ccc2cc(CNCC(O)(Cn3cncn3)c3ccc(F)cc3F)ccc21` (stereo unspecified), for which the MIC result in [1] was “inactive”. Besides, the MIC in test [2] worked out at 0.027 µg/mL (≈ 0.0554 µM).

Turning to `CC(C)(C)OC(=O)n1ccc2cc(CNCC(O)(Cn3cncn3)c3ccc(F)cc3F)ccc21` (stereo unspecified), the MIC in [3] was 3.8 µg/mL (≈ 7.86 µM); in [4], 24 µg/mL (≈ 49.6 µM); in test [5], 27 µg/mL (≈ 55.8 µM); in test [2], 0.003 µg/mL (≈ 0.0062 µM); in [6], 12 µg/mL (≈ 24.8 µM); in test [7], 19 µg/mL (≈ 39.3 µM). Also, the MIC in [8] came out at 33 µg/mL (≈ 68.2 µM); in test [9], 32 µg/mL (≈ 66.2 µM). Besides, in test [1], the MIC entry is “inactive”.

Consider `OC(Cn1cncn1)(Cn1cncn1)c1ccc(F)cc1F` [FLUCONAZOLE], for which the MIC in [3] is 19 µg/mL (≈ 62 µM); in test [4] it was over 64 µg/mL; in [5] it was over 64 µg/mL; in test [2] it was 0.19 µg/mL (≈ 0.62 µM); in [6] it was over 64 µg/mL; in [7], over 64 µg/mL. Also, the MIC in [8] and in [9] was over 64 µg/mL in each case.

As for `OC(CNCc1ccc2[nH]ccc2c1)(Cn1cncn1)c1ccc(F)cc1F` (stereo unspecified), the MIC result in test [1] is “inactive”. The compound also showed an MIC in test [2] of 0.034 µg/mL (≈ 0.0887 µM).

Take `OC(CNCc1ccc2[nH]ccc2c1)(Cn1cncn1)c1ccc(Cl)cc1Cl` (stereo unspecified): the MIC entry in test [1] is “inactive”. In [2], this compound showed an MIC of 0.031 µg/mL (≈ 0.0745 µM).

Compound `CCC(C)n1ncn(-c2ccc(N3CCN(c4ccc(OCC5COC(Cn6cncn6)(c6ccc(Cl)cc6Cl)O5)cc4)CC3)cc2)c1=O` (stereo unspecified) [ITRACONAZOLE] showed an MIC in test [1] of 0.42 µg/mL (≈ 0.595 µM).

For `CC(C)(C)OC(=O)n1ccc2cc(CNCC(O)(Cn3cncn3)c3ccc(Cl)cc3Cl)ccc21` (stereo unspecified), in test [1], the MIC result was “inactive”. In addition, the MIC in test [2] was found to be 0.039 µg/mL (≈ 0.0755 µM).

Regarding `O=C(c1ccccc1)n1ccc2cc(CNCC(O)(Cn3cncn3)c3ccc(Cl)cc3Cl)ccc21` (stereo unspecified), in [1], the MIC result is “inactive”. Also, in test [2], it took 0.031 µg/mL (≈ 0.0596 µM) to inhibit growth (MIC).

Regarding `CN(Cc1ccc2[nH]cc(C(=O)C(F)(F)F)c2c1)CC(O)(Cn1cncn1)c1ccc(F)cc1F` (stereo unspecified), the MIC entry in test [1] is “inactive”. Further, in test [2], the MIC was determined as 0.064 µg/mL (≈ 0.13 µM).

In the case of `CN(Cc1ccc2c(ccn2C(=O)c2ccccc2)c1)CC(O)(Cn1cncn1)c1ccc(F)cc1F` (stereo unspecified), the MIC entry in [1] is “inactive”. In [2], this compound came in with an MIC of 0.032 µg/mL (≈ 0.0638 µM).

Take `CN(Cc1ccc2[nH]ccc2c1)CC(O)(Cn1cncn1)c1ccc(F)cc1F` (stereo unspecified): the MIC result in [1] is “inactive”. This compound also showed a minimal inhibitory concentration (MIC) in test [2] of 0.035 µg/mL (≈ 0.0881 µM).
